From article PMC4627091 (2015)

How the values were obtained:
[1] = system: wt Spinach with anchor sequence (in solution) (RNA, aptamer) GGGAACACAAUAAUAAAACUUACAAACAAGAAAAAAAAGACGCGACUGAAUGAAAUGGUGAAGGACGGGUCCAGCUGCUUCGGCAGCUUGUUGAGUAGAGUGUGAGCUCCGUAACUAGUCGCGUC; test: solution binding assay (off chip); settings: buffer and temperature not stated
[2] = system: Spinach with GAAA tetraloop (RNA, aptamer) GGGAACACAAUAAUAAAACUUACAAACAAGAAAAAAAAGACGCGACUGAAUGAAAUGGUGAAGGACGGGUCCAGCUGCGAAAGCAGCUUGUUGAGUAGAGUGUGAGCUCCGUAACUAGUCGCGUC; test: on-chip fluorescence titration and melting; settings: 125 mM KCl, 5 mM MgCl2; 40 mM HEPES, 5% DMSO; comparable to UUCG loop; immobilised RNA
[3] = system: wt Spinach (87-nt, on chip, with 5' capture tag) (RNA, aptamer) GGGAACACAAUAAUAAAACUUACAAACAAGAAAAAAAAGACGCGACUGAAUGAAAUGGUGAAGGACGGGUCCAGCUGCUUCGGCAGCUUGUUGAGUAGAGUGUGAGCUCCGUAACUAGUCGCGUC; test: on-chip fluorescence titration (mLSI pull-down); settings: 125 mM KCl, 5 mM MgCl2; 40 mM HEPES, 5% DMSO; temperature of this value not stated (19-28°C series); immobilised RNA
[4] = system: Spinach with GUGA tetraloop (RNA, aptamer) GGGAACACAAUAAUAAAACUUACAAACAAGAAAAAAAAGACGCGACUGAAUGAAAUGGUGAAGGACGGGUCCAGCUGCGUGAGCAGCUUGUUGAGUAGAGUGUGAGCUCCGUAACUAGUCGCGUC; test: on-chip fluorescence; settings: 125 mM KCl, 5 mM MgCl2; loss of fluorescence attributed to misfolding; up to 43.5 μM DFHBI
[5] = system: Spinach U50C (RNA, aptamer) GGGAACACAAUAAUAAAACUUACAAACAAGAAAAAAAAGACGCGACUGAAUGAAAUGGUGAAGGACGGGUCCAGCUGCUUCGGCAGCCUGUUGAGUAGAGUGUGAGCUCCGUAACUAGUCGCGUC; test: on-chip fluorescence titration (mLSI pull-down); settings: 125 mM KCl, 5 mM MgCl2; 40 mM HEPES, 5% DMSO; temperature of this value not stated; immobilised RNA
[6] = system: wt Spinach without anchor sequence (in solution) (RNA, aptamer) GACGCGACUGAAUGAAAUGGUGAAGGACGGGUCCAGCUGCUUCGGCAGCUUGUUGAGUAGAGUGUGAGCUCCGUAACUAGUCGCGUC; test: solution binding assay (off chip); settings: buffer and temperature not stated

In the case of `CC1=N/C(=C\c2cc(F)c(O)c(F)c2)C(=O)N1C`, the Kd [1] is reported as 0.68 µM, the binding [2] is reported as “yes” and the Kd [3] is reported as 1.18 µM. For the same molecule, the binding [4] was “no”, the Kd [5] was 0.45 µM and the Kd [6] was 0.53 µM.
